{
  "source": "patent US11260050B2",
  "about": "“Combination of cotinine plus antioxidant for treatment-resistant depression and correction of astrocytes functional deficit induced by depression and other neuropathological” (UNIVERSIDAD SAN SEBASTIAN, priority 2017, dated 2022)",
  "key": {"conditioned mice [1]": {"system": "conditioned mice", "experiment": "Fear retention and extinction tests after fear conditioning (Example 4)", "type": "in vivo, Mice C57BL/6", "description": "(§1) Three-month-old mice (n=5-6/condition) were weighed and assigned to treatment groups. Mice were treated with vehicle or drugs, starting two h after fear conditioning and daily after behavioral testing until euthanasia. Mice received daily treatments with 1. PBS (phosphate buffer saline, pH 7.4) via intranasal; 2. Cotinine (10 mg/ml) dissolved in PBS via intranasal (IN Cot, 24 μl); 3. Krill oil dissolved in PBS, via intranasal (48 mg/ml, 24 μl); 4. Cotinine (10 mg/ml) plus krill oil dissolved in PBS, via intranasal (48 mg/ml, 24 μl); 5.\n(§2) For intranasal delivery, mice were hand-restrained, placed in a supine position, and given two 12 μl drops of cotinine solutions, or PBS, into both nares consecutively. Mice were given an extra 12 μl treatment drop if the subject forcibly ejected or sneezed out the solution. Mice were held supine for 5-10 seconds after delivery to ensure that all fluid was inhaled.\nContextual fear conditioning was performed as described. The conditioning chamber used (33 cm×20 cm×22 cm) is surrounded by a sound-attenuating box with a camera connected to freeze frame software (MED Associates Inc.) and equipped to provide a background white noise (72 dB). The conditioning chamber contains in one side a speaker and in the opposite side has a 24V light, and a 36-bar insulated shock grid floor. To perform this test, each mouse was placed in the conditioning chamber for 2 min before the onset of a discrete tone (a sound that will last 30 seconds (sec) at 2,800 Hz and 85 dB). In the last two seconds of this tone, mice received a foot shock of 1 mA, kept in the conditioning chamber for 2 min and returned to their home cages. Between trials, the chamber was sanitized with 70% ethanol and dried. Freezing behavior was defined as the absence of all movement except the one needed for breathing was assessed using the FreezeView Software (MED Associates Inc.).\nFear retention and extinction experiments were performed as described, using the same cohorts of mice and reproduced in two separate experiments. To assess fear retention and mice underwent re-exposure to the conditioning chamber in the absence of an unconditioned stimulus (shock or auditory cues) for 3 minutes (min) in daily extinction trials. Freezing behavior was measured using the ANY-Maze® software (Stoelting CO, USA). The extinction trials were continued until the decrease in freezing behavior reached a stable level."}, "conditioned mice [2]": {"system": "conditioned mice", "experiment": "Forced swim test after fear conditioning and extinction (Example 4)", "type": "in vivo, Mice C57BL/6", "conditions": "FC mice after extinction; Tukey: cotinine p<0.001, combination p<0.005, sertraline p<0.05", "description": "as §1, §2"}},
  "data": [
    {"molecule": "CN[C@H]1CC[C@@H](c2ccc(Cl)c(Cl)c2)c2ccccc21.Cl", "note": "[Sertraline, (1S,4S)-4-(3,4-dichlorophenyl)-1,2,3,4-tetrahydro-N-methyl-1-naphthalenamine hydrochloride, reference compound]", "values": [
      {"measurement": "freezing behavior during daily extinction trials (speed of fear extinction)", "setting": "conditioned mice [1]; 5 days of extinction, daily treatment", "value": "overall slower extinction of fear than controls"},
      {"measurement": "fear reaction (freezing) in the retention test", "setting": "conditioned mice [1]; treatment started 2 h after FC, IN cotinine 10 mg/ml, IN KO 48 mg/ml, oral sertraline 3 mg/kg", "value": "no significant effects"},
      {"measurement": "depressive-like behavior (immobility) in the forced swim test", "setting": "conditioned mice [2]", "value": "significantly decreased depressive-like behavior"}
    ]}
  ]
}
